These results are taken from patent US10233152B2, “LSD1 inhibitors” (Mirati Therapeutics, Inc., priority 2015, dated 2019).

Each structure is given as a SMILES string.

The test system of one experiment is MV4-11 cells. In words: Inhibition of LSD1-mediated cell proliferation, CellTiter Glo luminescence assay. Conditions: Homo sapiens, MV4-11, 168 h, read-out: Inhibition of LSD1-mediated Cell Proliferation IC50. (In general: In ATP-based viability assays light output follows the ATP content of the culture.)
In experiment [1] the target is purified N-terminal truncated human LSD1 enzyme (aa 151-852) (Homo sapiens (Human), UniProt O60341). In words: LSD1 fluorescence coupling enzymatic assay (horseradish peroxidase/Amplex Red). Particulars: 50 nM LSD1, 30 min pre-incubation, histone 3.3 peptide (aa 1-21), 10-point dose-response; read-out: Inhibition of LSD1 Activity IC50. The class given is biochemical.
Experimental: Briefly, compounds of the present invention were solubilized in DMSO and a series of 10, three-fold serial dilutions were made for each compound in 15% DMSO. The initial starting concentration for the serial dilutions of each compound was 10 μM.
An aliquot of each serial dilution of test compound was added to a 96 well plate containing 50 nM purified N-truncated LSD1 enzyme (RBC Cat# PDM-11-350), 50 mM Tris-HCl, pH 7.5, 0.05% CHAPS and 1% DMSO in a 10 microliter reaction volume. The plate was pre-incubated at room temperature for 30 min to which 10 M of histone 3.3 peptide (aa 1-21) was added to initiate the enzymatic reaction. The reaction mixture was incubated at room temperature for one hour. […] The IC50 value for each compound was determined from each 10-point dose-response curve using GraphPad Prism 4 software with a sigmodial dose response.

Experimental for MV4-11 cells: Inhibition of LSD1-mediated cellular proliferation by compounds of Formula (I) or Formula (II) was measured in a CellTiter Glo luminescence assay (Promega Corp), which determines the number of viable cells by quantitating the amount of ATP, using a BMG LabTech CLARIOStar instrument in accordance with the manufacturer's instructions. […] The plates were incubated at 37° C. for four days and thereafter 50 μl fresh medium containing the same concentration of test compound was added. The plates were incubated for an additional three days (Day 7). A baseline measurement, as described below, was taken for a time zero point at Day 0.
At Day 7, the supernatant was removed by aspiration and the plate was allowed to equilibrate to room temperature (˜15 min). The cells were lysed using 45 μl (30 μl for Day 0) of Cell Titer Glo reagent (Promega Corp). The plates were shaken for two minutes and incubated at room temperature for 30 minutes. The degree of inhibition of cell viability was determined using a spectrophotometric readout by measuring the luminescence at 340 nm and the EC50 concentration for each compound was calculated using Graph Pad Prism 4 software.

Take `Brc1ccc(NCCN2CCC(N[C@@H]3C[C@H]3c3ccccc3)CC2)cc1` [Example 33, 1-(2-((4-bromophenyl)amino)ethyl)-N-((1R,2S)-2-phenylcyclopropyl)piperidin-4-amine]: the IC50 (in the experiment with MV4-11 cells; in experiment [1]) was under 1 nM each time.
`C[N+]1(CCOc2ccc(CC(=O)NS(C)(=O)=O)cc2)CC(CN[C@@H]2C[C@H]2c2ccccc2)C1` (stereo partly drawn) [Example 98]: the IC50 with MV4-11 cells was over 1000 nM.
